{"source": "patent US7741529B1", "about": "“Transgenic animal model for catecholaminergic polymorphic ventricular tachycardia (CPVT) and use thereof” (priority 2006, dated 2010)", "assay_type_in_all_cases": "in vivo, mouse", "key": {"RyR2^+/RyR^R4496C mice [1]": {"tested_on": "RyR2^+/RyR^R4496C mice", "test": "ECG radiotelemetry: effect of propranolol on RR and QT interval in RyR2+/RyRR4496C mice", "description": "The cardiac activity in transgenic animals is preferably measured by continuous ECG monitoring. ECG radiotelemetry monitors (Data Sciences International) are typically implanted intraabdominally under general anaesthesia. After recovery from surgery the electrocardiographic signal is recorded continuously in conscious animal kept in special cages provided with receivers and connected to a A/D converted an a PC for data storage. Off-line analyses of stored ECGs parameters comprise: quantification of arrhythmias, heart rate trends, heart rate variability assessment (power spectrum analysis), QT interval and T wave assessments. Other parameters of cardiac functionality measurable by ECG are the following: baseline QT interval (measured using the tangent method^23), RR interval, RR variability.\n(§1) ECG radiotelemetry monitors (Data Sciences International) were implanted intraabdominally under general anaesthesia (Avertin […]). Body temperature was maintained at 37° C. by use of a thermally controlled heating pad (Harvard Apparatus). ECG was continuously monitored starting 48 h after surgery. After 72 hours of recovery from surgery phenotype characterization was performed.\n(§2) One group (Group 1) of animals exercised on a treadmill until exhaustion. The animals were then injected with epinephrine 2 mg/kg i.p. (WT n=12, RyR2^+/RyR^R4496C n=14). A second group of animals (Group 2) was injected with epinephrine (2 mg/kg ip) and caffeine (120 mg/kg i.p.) (WT, n=8, RyR2^+/RyR^R4496C, n=7). ECG monitoring was performed continuously during both exercise and drug testing protocols. Five additional RyR2^+/RyR^R4496C animals were treated for 24 hours with propranolol i.p. (2 mg/Kg) every 12 hours before being exposed to the epinephrine and caffeine protocol.\n(§3) Five RyR2^+/RyR^R4496C mice were treated with propranolol to evaluate if antiadrenergic compounds could prevent induction of arrhythmias. After drug administration we observed a prolongation of RR interval from 94.5±13 to 118±13 msec […] (p<0.001). […] Despite pretreatment with betablockers, the administration of caffeine and epinephrine elicited VTsust in 2 and VF in 2 (sustained arrhythmias in 4 mice); only one mouse had no arrhythmias (p=0.56; i.e. non significant versus RyR2+/RyR^R4496C mice)."}, "WT mice": {"tested_on": "WT mice", "test": "ECG radiotelemetry: effect of betablockers on RR interval in WT mice"}, "RyR2^+/RyR^R4496C mice [2]": {"tested_on": "RyR2^+/RyR^R4496C mice", "test": "Epinephrine and caffeine arrhythmia induction after propranolol pretreatment (continuous ECG monitoring)", "description": "Arrhythmias were defined as follows: non sustained ventricular tachycardia (VTns) was defined as a series of 4 to 10 consecutive repetitive ventricular ectopic beats (VEBs), sustained VT (VTsust) was defined as a run of >10 consecutive VEBs, ventricular fibrillation (VF) was defined as a VTsust degenerating into ventricular fibrillation leading to sudden death.\nas §1, §2\nAmong the RyR2^+/RyR^R4496C mice 4/8 or 50% developed sustained arrhythmias (VTsust n=2; FIG. 4 panel B and VF n=2; FIG. 5 panel B p=0.02 versus WT; Table I).\nas §3"}, "[3]": {"settings": "5 pretreated mice, epinephrine 2 mg/kg i.p. and caffeine 120 mg/kg i.p."}, "[4]": {"settings": "Group 2, N=5, epinephrine and caffeine i.p."}}, "note": "Marks after values point to notes of the source that are not given here.", "data": [{"compound": "CC(C)NCC(O)COc1cccc2ccccc12", "note": "(stereo not shown) [propranolol]", "values": [{"measurement": "Baseline RR", "setting": "RyR2^+/RyR^R4496C mice [1]; Group 2, N=5, beta blockade, p=0.0001 vs untreated RyR2^+/RyR^R4496C", "result": "121 + 23*"}, {"measurement": "Baseline QT", "setting": "RyR2^+/RyR^R4496C mice [1]; Group 2, N=5, beta blockade, tangent method, ANOVA P=0.966", "result": "23 + 0.2§"}, {"measurement": "RR interval (in words)", "setting": "RyR2^+/RyR^R4496C mice [1]; RyR2^+/RyR^R4496C animals pretreated with betablockers, Group 2", "result": "significantly prolonged"}, {"measurement": "mean prolongation of RR interval", "setting": "RyR2^+/RyR^R4496C mice [1]; RyR2^+/RyR^R4496C mice after betablockers, p=0.69 vs WT", "result": "23.62 ± 0.14", "unit": "ms"}, {"measurement": "percentage of RR change after betablockers (Δ%=ΔRR*100/RR baseline)", "setting": "RyR2^+/RyR^R4496C mice [1]; RyR2^+/RyR^R4496C mice, p=0.52 vs WT", "result": "25±3", "unit": "%"}, {"measurement": "RR interval after drug administration", "setting": "RyR2^+/RyR^R4496C mice [1]; five RyR2^+/RyR^R4496C mice, propranolol i.p. 2 mg/Kg every 12 hours for 24 hours, prolongation from 94.5±13, p<0.001", "result": "118 ± 13", "unit": "ms"}, {"measurement": "percentage of RR change after betablockers (Δ%=ΔRR*100/RR baseline)", "setting": "WT mice; WT mice", "result": "27±5", "unit": "%"}, {"measurement": "mean prolongation of RR interval", "setting": "WT mice; WT mice after betablockers", "result": "22.92 ± 3.6", "unit": "ms"}, {"measurement": "number of mice with VF", "setting": "RyR2^+/RyR^R4496C mice [2]; [3]", "result": 2}, {"measurement": "number of mice with VTsust", "setting": "RyR2^+/RyR^R4496C mice [2]; [3]", "result": 2}, {"measurement": "number of mice with no arrhythmias", "setting": "RyR2^+/RyR^R4496C mice [2]; 5 pretreated mice, epinephrine and caffeine", "result": "one"}, {"measurement": "sustained arrhythmias (number of mice)", "setting": "RyR2^+/RyR^R4496C mice [2]; 5 pretreated mice, epinephrine and caffeine, p=0.56 versus untreated RyR2+/RyR^R4496C mice", "result": 4, "unit": "mice"}, {"measurement": "All VT/VF (sum of animals experiencing VTns or VTsust or VF)", "setting": "RyR2^+/RyR^R4496C mice [2]; [4]", "result": 4}, {"measurement": "VTns (number of animals)", "setting": "RyR2^+/RyR^R4496C mice [2]; [4]", "result": 0}, {"measurement": "VTsust & VF (number of animals)", "setting": "RyR2^+/RyR^R4496C mice [2]; [4]", "result": 4}, {"measurement": "prevention of arrhythmias (in words)", "setting": "RyR2^+/RyR^R4496C mice [2]; RyR2^+/RyR^R4496C mice", "result": "not effective in preventing arrhythmias"}]}]}
